Laboratory results from patent US20180110762A1, “Compositions Methods for Treating Chronic Kidney Disease” (Merck Sharp & Dohme Corp, priority 2015, published 2018).
Marks after values point to notes of the source that are not given here.

Experiments:
Assay type in all cases: in vivo
[1] = ZSF1 rat 28-week in-feed study: body weight, food and water intake; settings: obese ZSF1 rats, 10 mpk in-feed
Protocol: (§1) The effects of Compound A (“A”) on renal function, plasma triglycerides, plasma cholesterol, kidney collagen I, kidney collagen III, renal histology, glomerular filtration rate, fibrosis score, and mRNA gene expression (profibrotic genes and integrin β3) were evaluated in male obese ZSF1 rats (a hybrid F1 of Zucker diabetic fatty rat and spontaneously hypertensive heart failure rat; a diabetic nephropathy model) when administered as in-feed for 28 weeks. Sixty obese male ZSF1 rats were randomized to five groups: Obese control (n=12), Compound A 60 mpk (n=12), Compound A 200 mpk (n=12), Compound A 400 mpk (n=12), Enalapril 10 mpk (n=12); Eight lean male ZSF1 rats were used for normal control. Renal functional changes were monitored by blood and urine analysis following in-feed dosing for 28 weeks. Compound exposure was also monitored during the study.

[2] = tested on: male obese ZSF1 rats (diabetic nephropathy model); assay: ZSF1 rat 28-week in-feed study: urinary protein (UPCR, 24 h excretion); settings: obese ZSF1 rats, 10 mpk in-feed
Protocol: as §1

[3] = tested on: male obese ZSF1 rats (diabetic nephropathy model); assay: ZSF1 rat study: GFR measurement by FITC-sinistrin clearance; settings: obese ZSF1 rats, 10 mpk in-feed, week 28
Protocol: as §1
For the measurement of GFR, a miniaturized device (NIC-Kidney, Mannheim Pharma & Diagnostics, Mannheim, Germany) was used. In brief, the device (batteries, diodes, and microprocessor) containing an optical component was affixed on a depilated region of the back using a double-sided sticky patch (Lohmann GmbH KG, 56567, Neuwied, Germany) under isofluorane anesthesia (3% isoflurane mixed with oxygen). After a resting baseline period of 1-1.5 minutes, a bolus of FITC-sinistrin (5 mg/100 g body weight, dissolved in 0.5 mL sterile isotonic saline) was injected through the tail vein. The rat was then placed in a clean cage for recovery from anesthesia to responsible ambulation. […] The excretion kinetics of FITC-sinistrin was determined using a sampling rate of 60 measurements per minute with an excitation time of 10 milliseconds per measurement for 120 minutes after the injection. One compartment model was used for FITC-sinistrin clearance. After completion of GFR measurement, the device was gently removed from the skin and the rat returned to its home cage.

[4] = tested on: male obese ZSF1 rats (diabetic nephropathy model); assay: ZSF1 rat study: plasma triglyceride and cholesterol; settings: obese ZSF1 rats, 10 mpk in-feed; for plasma cholesterol levels: in mg/dL (unit assumed)
Protocol: as §1

[5] = tested on: male obese ZSF1 rats (diabetic nephropathy model); assay: ZSF1 rat study: kidney collagen I and III immunostaining; settings: obese ZSF1 rats, 10 mpk in-feed, week 28
Protocol: as §1
Following deparaffinization and rehydration, each kidney tissue section was processed to identify collagen I and III deposition. The primary antibodies used were rabbit anti-type I collagen polyclonal antibody (Abcam, Cambridge, Mass.) diluted at 2 ug/ml, and rabbit anti-type III collagen polyclonal antibody (Lifespan, Seattle, Wash.) at 3 ug/ml. The signal was developed by using Super PicTure HRP Polymer Rabbit Primary kit (Invitrogen) and the slides were counterstained with hematoxylin. The Aperio ScanScope XT Slide Scanner (Aperio Technologies, Vista, Calif.) system was used to capture whole slide digital images with a 20× objective. Digital images were managed using Aperio Spectrum. The positive stains were identified and quantified using a macro created from a color deconvolution algorithm (Aperio Technologies, Vista, Calif.).

[6] = tested on: male obese ZSF1 rats (diabetic nephropathy model); assay: ZSF1 rat study: renal fibrosis score (histology); settings: obese ZSF1 rats, 10 mpk in-feed, week 28
Protocol: as §1
Upon completion of the study, animals were euthanized and blood and organs (kidney, heart, aorta, eyes, and lumber vertebrae (LV1-LV5) and left femur) were collected for histology assessment (including EM for the kidneys) or DEXA scan (lumber vertebrae and left femur). Kidney tissues were fixed in 10% formalin and then paraffin embedded. Tissue sections were stained with hematoxylin and eosin (H&E), periodic acid-Schiff (PAS), and Masson's trichrome and evaluated under light microscope. The severity of histopathologic changes in renal tubules, interstitium, vasculature, and glomeruli were graded on a 1 to 5 scale corresponding to minimal, mild, moderate, marked, and severe as described previously. Sections from both kidneys were examined. Collagen deposition in the kidney was graded on a 1 to 5 scale corresponding to minimal, mild, moderate, marked, and severe, based on the blue stained area size and intensity.

[7] = tested on: male obese ZSF1 rats (diabetic nephropathy model); assay: ZSF1 rat study: kidney mRNA expression of profibrotic genes and integrin beta3; settings: obese ZSF1 rats, 10 mpk in-feed, week 28
Protocol: as §1

SMILES: CCOC(=O)[C@H](CCc1ccccc1)N[C@@H](C)C(=O)N1CCC[C@H]1C(=O)O [Enalapril, reference compound]
- Body Weight ([1]; week 1): 570.2 ± 10.3 grams
- Food Intake ([1]; week 1): 30.1 ± 1.3 grams/24 h
- Water Intake ([1]; week 1): 50.2 ± 6.2 mls/24 h
- Body Weight ([1]; week 2): 578.3 ± 11.2 grams
- Food Intake ([1]; week 2): 31.7 ± 1.4 grams/24 h
- Water Intake ([1]; week 2): 55.0 ± 5.2 mls/24 h
- Body Weight ([1]; week 4): 585.7 ± 11.1 grams
- Food Intake ([1]; week 4): 33.1 ± 1.0 grams/24 h
- Water Intake ([1]; week 4): 56.6 ± 6.0 mls/24 h
- Body Weight ([1]; week 6): 606.1 ± 11.6 grams
- Food Intake ([1]; week 6): 33.1 ± 1.0 grams/24 h
- Water Intake ([1]; week 6): 61.7 ± 5.5 mls/24 h
- Body Weight ([1]; week 8): 623.8 ± 13.3 grams
- Food Intake ([1]; week 8): 35.1 ± 1.5 grams/24 h
- Water Intake ([1]; week 8): 85.4 ± 7.4 mls/24 h
- Body Weight ([1]; week 10): 637.2 ± 14.1 grams
- Body Weight ([1]; week 12): 655.6 ± 14.2 grams
- Food Intake ([1]; week 12): 36.6 ± 1.5 grams/24 h
- Water Intake ([1]; week 12): 91.7 ± 7.5 mls/24 h
- Body Weight ([1]; week 14): 658.1 ± 16.2 grams
- Body Weight ([1]; week 16): 671.1 ± 16.8 grams
- Food Intake ([1]; week 16): 33.3 ± 1.6 grams/24 h
- Water Intake ([1]; week 16): 83.3 ± 8.3 mls/24 h
- Body Weight ([1]; week 18): 682.1 ± 16.4 grams
- Body Weight ([1]; week 21): 709.5 ± 18.0 grams
- Food Intake ([1]; week 21): 37.7 ± 1.6 grams/24 h
- Water Intake ([1]; week 21): 75.8 ± 5.9 mls/24 h
- Body Weight ([1]; week 24): 733.7 ± 20.2 grams
- Food Intake ([1]; week 24): 35.5 ± 1.3 grams/24 h
- Water Intake ([1]; week 24): 89.7 ± 7.9 mls/24 h
- Body Weight ([1]; week 28): 753.7 ± 21.8 grams
- Food Intake ([1]; week 28): 33.6 ± 1.5 grams/24 h
- Water Intake ([1]; week 28): 68.0 ± 6.5 mls/24 h
- Body Weight ([1]; week −2): 522.2 ± 10.2 grams
- Food Intake ([1]; week −2): 37.5 ± 1.5 grams/24 h
- Water Intake ([1]; week −2): 68.1 ± 4.9 mls/24 h
- 24 h Urinary Protein Excretion ([2]; week 1): 73.9 ± 3.8 mg/24 h
- UPCR (urinary protein/creatinine ratio) ([2]; week 1): 6.3 ± 0.3 mg/mg
- 24 h Urinary Protein Excretion ([2]; week 2): 91.2 ± 4.9 mg/24 h
- UPCR (urinary protein/creatinine ratio) ([2]; week 2): 7.4 ± 0.4 mg/mg
- 24 h Urinary Protein Excretion ([2]; week 4): 96.1 ± 5.1 mg/24 h
- UPCR (urinary protein/creatinine ratio) ([2]; week 4): 8.0 ± 0.4 mg/mg
- 24 h Urinary Protein Excretion ([2]; week 6): 92.2 ± 6.0 mg/24 h
- UPCR (urinary protein/creatinine ratio) ([2]; week 6): 7.3 ± 0.4 mg/mg
- 24 h Urinary Protein Excretion ([2]; week 8): 135.3 ± 10.2 mg/24 h
- UPCR (urinary protein/creatinine ratio) ([2]; week 8): 10.2 ± 0.6 mg/mg
- 24 h Urinary Protein Excretion ([2]; week 12): 234.8 ± 16.4 mg/24 h
- UPCR (urinary protein/creatinine ratio) ([2]; week 12): 17.1 ± 0.9 mg/mg
- 24 h Urinary Protein Excretion ([2]; week 16): 252.2 ± 21.1 mg/24 h
- UPCR (urinary protein/creatinine ratio) ([2]; week 16): 14.0 ± 0.7 mg/mg
- 24 h Urinary Protein Excretion ([2]; week 21): 274.5 ± 16.8 mg/24 h
- UPCR (urinary protein/creatinine ratio) ([2]; week 21): 15.6 ± 0.6 mg/mg
- 24 h Urinary Protein Excretion ([2]; week 24): 289.4 ± 16.5 mg/24 h
- UPCR (urinary protein/creatinine ratio) ([2]; week 24): 16.6 ± 0.8 mg/mg
- 24 h Urinary Protein Excretion ([2]; week 28): 309.6 ± 15.8 mg/24 h
- UPCR (urinary protein/creatinine ratio) ([2]; week 28): 19.5 ± 0.8 mg/mg
- 24 h Urinary Protein Excretion ([2]; week −2): 132.9 ± 9.9 mg/24 h
- UPCR (urinary protein/creatinine ratio) ([2]; week −2): 10.8 ± 0.8 mg/mg
- FITC-sinistrin clearance, % change of improvement compared to Obese Vehicle group [3]: 59.6%****
- Glomerular Filtration Rate [3]: 971.9 ± 53.3 uLs/Min/100 gm BW
- Plasma Triglyceride ([4]; week 2): 2979.8 ± 161.7 mg/dL
- plasma cholesterol levels ([4]; week 2): 220.9 ± 5.9
- Plasma Triglyceride ([4]; week 4): 3212.4 ± 137.6 mg/dL
- plasma cholesterol levels ([4]; week 4): 251.1 ± 7.4
- Plasma Triglyceride ([4]; week 6): 2866.6 ± 145.5 mg/dL
- plasma cholesterol levels ([4]; week 6): 232.5 ± 6.0
- Plasma Triglyceride ([4]; week 8): 3770.3 ± 280.6 mg/dL
- plasma cholesterol levels ([4]; week 8): 294.3 ± 6.7
- Plasma Triglyceride ([4]; week 12): 3298.3 ± 221.4 mg/dL
- plasma cholesterol levels ([4]; week 12): 290.2 ± 7.6
- Plasma Triglyceride ([4]; week 16): 3554.6 ± 186.3 mg/dL
- plasma cholesterol levels ([4]; week 16): 319.3 ± 9.9
- Plasma Triglyceride ([4]; week 21): 3224.3 ± 240.5 mg/dL
- plasma cholesterol levels ([4]; week 21): 321.1 ± 11.3
- Plasma Triglyceride ([4]; week 24): 3180.2 ± 204.5 mg/dL
- plasma cholesterol levels ([4]; week 24): 354.3 ± 12.5
- Plasma Triglyceride ([4]; week 28): 2855.1 ± 291.3 mg/dL
- plasma cholesterol levels ([4]; week 28): 368.8 ± 13.2
- Plasma Triglyceride ([4]; week −2): 2023.9 ± 82.1 mg/dL
- plasma cholesterol levels ([4]; week −2): 187.1 ± 5.4
- kidney collagen I protein levels [5]: 34.83 ± 0.71 % of area
- kidney collagen III protein levels [5]: 19.19 ± 0.90 % of area
- renal fibrosis score (expressed as 0-5) [6]: 2.0 ± 0.1
- Collagen I (a1) expression in the kidney [7]: 0.54 ± 0.02
- Collagen III (a1) expression in the kidney [7]: 0.39 ± 0.02
- Integrin beta3 expression in the kidney [7]: 0.68 ± 0.03
- PAI-1 expression in the kidney [7]: 0.52 ± 0.04
